Test results taken from US20240207282A1, “METHOD OF INCREASING CHAPERONE MEDIATED AUTOPHAGY BY STABILIZING THE INTERACTION OF RETINOIC ACID RECEPTOR-ALPHA AND AN INHIBITOR” (ALBERT EINSTEIN COLLEGE OF MEDICINE, priority 2021, published 2024).

Experiments:
CMA network = assay: Comparative transcriptomic analysis / qPCR of CMA network; assay type: cell-based, mouse; settings: compared to AR7
Experimental: mRNA-qPCR: RNA was extracted from individual retinas. Total RNA from retinas was extracted using TRIzol Reagent (Invitrogen), and reverse transcription performed using the High-Capacity cDNA Reverse Transcription Kit (Applied Biosystems) according to the manufacturer's instructions. Quantitative real-time PCR was performed in a Light Cycler 480 Instrument (Roche) with Taqman Universal PCR Master Mix using Taqman assays (Life Tech-nologies). The following probes were used: Mm01184405_m1 (rhodopsin), F-5′-CTTAGCTTCTGGGATGC CCC-3′, R-5′-[…]-3′ (lamp2a) F-5′-AA GGACTCCTA TAGTGGG TGACGA-3′, R-5′-[…]-3′ (mouse β-actin).
Microarray: Total RNA of the treated cells was extracted using TRIzol (Invitrogen) and purified with RNeasy chromatography (Qiagen). Cy3-labeled RNA (0.6 μg) from each condition were hybridized to Agilent Mouse 8×60K. Data were processed using the oligo package and normalized using Robust Multiarray Average (RMA) method. Gene set was filtered to remove genes without Entrez or GO annotation (21912 genes out of 55682) and genes with an […]. The full microarray Gomez-Sintes et al. raw data will be deposited in GEO upon acceptance of the manuscript. Pathway analysis was performed using the STRING database ([…]).
CMA index was calculated using data set from Ly (J. Proteome Research (2016) 15: 1350-1359), Gao (2020), and Lane (2020). Briefly, each element of the CMA network was attributed a weight. As LAMP-2A is the rate limiting component of CMA, it was given a weight of 2. Every other element received a weight of 1. Then, every element was attributed direction score that is +1 or −1 based on the known effect of a given element on CMA activity. The score was then calculated as the weighted/directed average of expression counts of every element of the CMA network.

rd10 mice = assay: rd10 mouse retinal degeneration, single intravitreal injection; assay type: in vivo
Experimental: Cryosections and immunofluorescence: Cryosections and immunofluorescence in retinal sections were performed as previously described 10. Primary antibodies used in this study were Transducin (Santacruz Biotechnologies) and Opsin R/G (Millipore). Sections were visualized by confocal microscopy (TCS SP5; Leica Microsystems). ONL thickness and outer segment length quantification: For ONL thickness quantification, DAPI images were taken at 40× in a fluorescence microscope Multidimensional system Leica AF6000 LX coupled to DMI600B microscope and Hamamatsu CCD 9100-02 camera. At least two sections per animal were analyzed, preferably central sections. Eight images per retina equally distributed along the retina were acquired. Three measures were taken per image and ratio ONL/INL quantified with ImageJ tools. Leica LAS-X was used for image acquisition and ImageJ (v.2.1.0) was used for image processing. For OS length measures, fixed positions common to all pictures were considered and OS length was measured using ImageJ straight line tool.

[1] = test system: retinal explants of rd10 mice; assay: Ex vivo retinal explants of rd10 mice; parameters: species or system mouse; settings: 10 μM, 24 h; vs contralateral untreated explant
Experimental: Ex-vivo retinal cultures: After removal of the eyes, all non-relevant tissue was removed from the neuroretina, which was then placed, photoreceptors upside down, in millicell support inserts (Millipore) and maintained in DMEM with 1 μM insulin (SIGMA, I2643-25 mg) for 24 h at 37° C. in a 5% CO2 atmosphere. Where indicated, retinas were incubated with 10 µM CA77 for the indicated times. The retinas were then washed twice with phosphate-buffered saline (PBS), fixed overnight in 4% paraformaldehyde (w/v) in 0.1 M phosphate buffer (pH 7.4) and processed.
Staining of whole-mount retinas: Immunostainings were performed overnight at 4° ° C. using antibodies against visual arrestin (Santacruz Biotechnologies) and Opsin R/G (Millipore) after initial permeabilization with 2% Triton X-100 for 1 h at RT and subsequent incubation with blocking solution (10% normal goat serum, 0.25% Triton X-100 in PBS). The retinas were then washed and incubated for 1 h with Alexa 568 or 647 (Invitrogen), counterstained with DAPI, mounted in Fluoromount, and visualized by confocal microscopy in a SP5 confocal microscope (TCS SP5; Leica Microsystems).

NIH3T3 = assay: Cell viability under paraquat oxidative stress; assay type: cell-based, mouse
Experimental: Cells: NIH3T3 mouse fibroblasts and the N2a neuroblastoma cell line were obtained from the American Type Culture Collection and were validated by genomic PCR. Primary human fibroblasts (GM01651) were from Coriell Repository. All the cells lines were tested for mycoplasma contamination using DNA staining protocol with Hoechst 33258 dye. Knock-down of NCoR1 was done using lentiviral mediated shRNA (SHCLNG-NM_011308) from the Sigma Mission library following standard procedures. Efficiency of knock-down was tested by immunoblot. Cell viability was measured using the CellTiter-Blue kit (Promega) 24 h after the addition of the different stressors according to manufacturer's instructions.

CC(=O)Nc1ccc(C2=Nc3ccc(Cl)cc3OC2)cc1 [CA77]
predicted CMA activation score (CMA network): higher | vision (rd10 mice; 7 days after single intravitreal injection): preserved vision | retinal ONL/INL ratio, OS and ONL preservation (rd10 mice; 7 days after single intravitreal injection (40 μM) at P18): thicker retinal ONL/INL ratio and better OS and ONL preservation | gliosis (rd10 mice; single intravitreal injection (40 μM) at P18): significantly improved | cones (opsin-positive) [1]: higher preservation also for cones | number of rods (rod arrestin-positive) [1]: significant preservation of the number of rods

Clc1ccc2c(c1)OCC(c1ccc(-c3ccccc3)cc1)=N2 [CA39]
predicted CMA activation score (CMA network): higher | protection against paraquat (NIH3T3; compound added after the insult, compared with AR7): significantly higher protection than AR7 | cell death under paraquat (NIH3T3; compound administered before the insult): reduced cell death
